In article PMC10746543, “Design principles for cyclin K molecular glue degraders” (Nature Chemical Biology, 2023):
Values joined by “and” are separate entries in the source; they are usually repeats but may differ in a detail not shown here. Identical values can stand only once. Like-named read-outs stand apart in the source and are kept apart here.

Legend:
[1] = target: T1, CDK12–cyclin K and DDB1 (Homo sapiens, UniProt Q16531+Q9NYV4, K965R); test: TR-FRET Kd determination, quadratic fit, 50 nM or 10 nM CDK12–cyclin K; format: binding; settings: for Kd: n = 1
T1 construct: His6–CDK12 (a.a. 713–1,052); full-length or beta-propeller B domain deletion (ΔBPB: a.a. 396–705 deleted) constructs of His6–DDB1ΔBPB, StrepII–Avi–DDB1, or His6–Spy–DDB1; made in house; host or cells: Trichoplusia ni High Five insect cells (baculovirus)
Excerpt: Equation (2) is a quadratic binding equation used for Kd determination,where Top and Bottom refer to the curve plateaus. […]

[2] = target: T1, CDK12–cyclin K and DDB1; test: TR-FRET ternary complex formation assay (compound titration); format: binding
Method in brief: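 Delayed (70 μs) time-resolved read; FRET computed as 520 nm over 490 nm emission.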

[3] = test system: HEK293T cells; test: Drug sensitivity assay (CellTiter-Glo viability) with or without MLN4924 pretreatment; format: cell-based, human; settings: for EC50: Homo sapiens, HEK-293T
Method in brief: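 Viability of HEK293T–Cas9 cells was compared after 3-day drug treatment with or without 100 nM MLN4924 pretreatment (2 h, versus DMSO). Values are CellTiter-Glo signals relative to DMSO controls.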

[4] = test system: cyclin K–eGFP degradation reporter; test: Cyclin K reporter stability analysis (dual-color cyclin K–eGFP reporter); format: cell-based, human; settings: Supplementary Table 2; HEK293T cycK-eGFP reporter, 5 h; read-out: Cellular assays DC50
Method in brief: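 Cells (HEK293T–Cas9, reporter-expressing) at 1 × 10^6 ml^−1; 5 h compound or DMSO; flow cytometry; gMFI eGFP ÷ mCherry on round mCherry-positive events; normalized to 3 DMSO controls.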

T1 sequence (Q9NYV4 713-1052 K965R): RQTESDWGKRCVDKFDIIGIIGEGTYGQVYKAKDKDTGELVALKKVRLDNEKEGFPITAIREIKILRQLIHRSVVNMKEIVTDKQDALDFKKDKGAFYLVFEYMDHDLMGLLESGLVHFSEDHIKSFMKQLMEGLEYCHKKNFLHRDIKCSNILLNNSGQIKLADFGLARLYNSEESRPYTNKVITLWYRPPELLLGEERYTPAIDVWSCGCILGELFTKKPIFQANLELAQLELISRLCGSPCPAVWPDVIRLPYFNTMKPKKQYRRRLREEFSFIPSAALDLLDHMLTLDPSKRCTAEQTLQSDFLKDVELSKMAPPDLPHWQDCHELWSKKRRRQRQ
T1 sequence (O75909 1-267 partner): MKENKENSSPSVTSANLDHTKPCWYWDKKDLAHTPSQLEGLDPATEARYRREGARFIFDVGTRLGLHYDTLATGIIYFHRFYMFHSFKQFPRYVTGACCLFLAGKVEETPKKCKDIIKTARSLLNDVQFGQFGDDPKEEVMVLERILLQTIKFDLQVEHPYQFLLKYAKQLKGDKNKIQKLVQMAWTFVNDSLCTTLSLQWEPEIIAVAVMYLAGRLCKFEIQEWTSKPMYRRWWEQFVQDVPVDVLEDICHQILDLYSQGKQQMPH
T1 sequence (Q16531 whole entry): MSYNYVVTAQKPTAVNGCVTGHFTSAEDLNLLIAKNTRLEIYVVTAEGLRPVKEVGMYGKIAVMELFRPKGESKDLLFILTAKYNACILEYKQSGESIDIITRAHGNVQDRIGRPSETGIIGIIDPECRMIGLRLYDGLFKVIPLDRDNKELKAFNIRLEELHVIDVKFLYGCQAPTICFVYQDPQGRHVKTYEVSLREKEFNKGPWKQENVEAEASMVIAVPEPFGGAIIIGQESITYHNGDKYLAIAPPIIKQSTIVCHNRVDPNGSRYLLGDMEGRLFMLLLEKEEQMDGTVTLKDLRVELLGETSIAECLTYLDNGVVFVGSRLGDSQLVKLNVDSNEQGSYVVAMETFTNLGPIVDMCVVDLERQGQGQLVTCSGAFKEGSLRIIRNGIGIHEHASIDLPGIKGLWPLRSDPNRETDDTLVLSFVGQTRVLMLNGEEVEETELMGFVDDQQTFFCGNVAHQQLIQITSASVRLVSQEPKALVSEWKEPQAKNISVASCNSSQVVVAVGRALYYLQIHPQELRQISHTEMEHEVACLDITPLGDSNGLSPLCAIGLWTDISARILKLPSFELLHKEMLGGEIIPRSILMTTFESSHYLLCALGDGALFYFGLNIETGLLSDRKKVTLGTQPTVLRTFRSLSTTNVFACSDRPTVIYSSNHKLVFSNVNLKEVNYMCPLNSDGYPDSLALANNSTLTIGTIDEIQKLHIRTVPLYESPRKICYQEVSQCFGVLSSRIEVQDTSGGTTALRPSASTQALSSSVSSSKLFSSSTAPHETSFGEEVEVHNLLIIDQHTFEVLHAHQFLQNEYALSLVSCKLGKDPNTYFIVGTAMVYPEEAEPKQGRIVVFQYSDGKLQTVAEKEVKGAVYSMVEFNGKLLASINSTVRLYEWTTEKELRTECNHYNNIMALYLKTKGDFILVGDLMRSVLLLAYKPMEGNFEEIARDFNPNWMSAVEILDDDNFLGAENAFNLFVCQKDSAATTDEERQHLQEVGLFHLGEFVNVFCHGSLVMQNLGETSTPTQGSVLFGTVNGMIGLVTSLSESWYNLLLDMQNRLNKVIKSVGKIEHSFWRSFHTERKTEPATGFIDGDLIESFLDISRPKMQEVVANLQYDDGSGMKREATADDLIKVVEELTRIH

Kd ([1]; 10 nM CDK12-cyclin K + 100 nM DDB1): 0.004 ± 0.001 µM
TR-FRET signal ([1]; 10 nM CDK12-cyclin K, compound 0.468 nM): 0.1087
TR-FRET signal ([1]; 10 nM CDK12-cyclin K, compound 2.16 nM): 0.1516
TR-FRET signal ([1]; 10 nM CDK12-cyclin K, compound 3.6 nM): 0.2175
TR-FRET signal ([1]; 10 nM CDK12-cyclin K, compound 7.92 nM): 0.2964
TR-FRET signal ([1]; 10 nM CDK12-cyclin K, compound 15.84 nM): 0.3471
TR-FRET signal ([1]; 10 nM CDK12-cyclin K, compound 30.96 nM): 0.4043
TR-FRET signal ([1]; 10 nM CDK12-cyclin K, compound 62.6399 nM): 0.4639
TR-FRET signal ([1]; 10 nM CDK12-cyclin K, compound 125.279 nM): 0.4363
TR-FRET signal ([1]; 10 nM CDK12-cyclin K, compound 244.8 nM): 0.4586
TR-FRET signal ([1]; 10 nM CDK12-cyclin K, compound 993.6 nM): 0.4753
TR-FRET signal ([1]; 10 nM CDK12-cyclin K, compound 2001.6 nM): 0.4769
Kd ([1]; 50 nM CDK12-cyclin K + 100 nM DDB1): 0.006 ± 0.002 µM
TR-FRET signal ([1]; 50 nM CDK12-cyclin K, compound 0.468 nM): 0.2249
TR-FRET signal ([1]; 50 nM CDK12-cyclin K, compound 2.16 nM): 0.2842
TR-FRET signal ([1]; 50 nM CDK12-cyclin K, compound 3.6 nM): 0.3938
TR-FRET signal ([1]; 50 nM CDK12-cyclin K, compound 7.92 nM): 0.6539
TR-FRET signal ([1]; 50 nM CDK12-cyclin K, compound 15.84 nM): 1.0227
TR-FRET signal ([1]; 50 nM CDK12-cyclin K, compound 30.96 nM): 1.706
TR-FRET signal ([1]; 50 nM CDK12-cyclin K, compound 62.6399 nM): 2.089
TR-FRET signal ([1]; 50 nM CDK12-cyclin K, compound 125.279 nM): 2.303
TR-FRET signal ([1]; 50 nM CDK12-cyclin K, compound 244.8 nM): 2.498
TR-FRET signal ([1]; 50 nM CDK12-cyclin K, compound 993.6 nM): 2.704
TR-FRET signal ([1]; 50 nM CDK12-cyclin K, compound 2001.6 nM): 2.6928
TR-FRET signal, individual replicate ([2]; compound concentration 0.468 nM): 0.2708 and 0.2758 and 0.8924 and 0.6371
TR-FRET signal, individual replicate ([2]; compound concentration 2.16 nM): 0.3875 and 0.4113 and 0.3298 and 0.5644
TR-FRET signal, individual replicate ([2]; compound concentration 3.6 nM): 0.6563 and 0.6817 and 0.5785 and 0.7591
TR-FRET signal, individual replicate ([2]; compound concentration 7.92001 nM): 1.219 and 1.2973 and 0.9793 and 1.183
TR-FRET signal, individual replicate ([2]; compound concentration 15.84 nM): 2.2073 and 2.2521 and 2.043 and 2.171
TR-FRET signal, individual replicate ([2]; compound concentration 30.96 nM): 3.25 and 3.347 and 3.281 and 3.173
TR-FRET signal, individual replicate ([2]; compound concentration 62.6401 nM): 3.39 and 3.868 and 3.793 and 3.73
TR-FRET signal, individual replicate ([2]; compound concentration 125.28 nM): 3.865 and 4.101 and 4.033 and 4.091
TR-FRET signal, individual replicate ([2]; compound concentration 244.8 nM): 3.936 and 4.169 and 4.142 and 4.064
TR-FRET signal, individual replicate ([2]; compound concentration 993.601 nM): 4.054 and 4.241 and 4.216 and 4.146
TR-FRET signal, individual replicate ([2]; compound concentration 2001.6 nM): 3.9849 and 4.219 and 4.148 and 4.067
DDB1–CDK12 complex formation, result in words ([2]; in vitro TR-FRET): activity equivalent to CR8
EC50 ([2]; in vitro complex formation, 50 nM CDK12–cyclin K, 100 nM DDB1, text and figures, read-out: TR-FRET EC50): 0.017 ± 0.001 µM
EC50 ([2]; sheet MOESM7, read-out: log TR-FRET EC50 (converted)): 0.0167 µM
EC50 ([2]; source data sheet correlations, read-out: TR-FRET EC50): 0.0167 µM
DC50 [4]: 1.03 µM
SMILES: CCC(CO)Nc1nc(NCc2ccc(-c3ccccc3)cc2)c2ncn(C(C)C)c2n1 (centres unmarked) [DS16]
EC50 ([3]; Supplementary Fig. 5, HEK293T, CellTiter Glo, 72h, pre-treatment with 100 nM MLN4924, read-out: Viability EC50, with MLN4924): 15 µM
EC50 ([3]; Supplementary Table 2, HEK293T viability, 72 h, compound alone, read-out: Cellular assays EC50): 0.6 µM
% MLN4924 rescue ([3]; PCA input): 1490%
Toxicity rescue ([3]; Supplementary Table 2, MLN4924-mediated cytotoxicity rescue, 10 µM used where n.d.): 1567%
